In the data set the test system is Primary neuronal cultures. As to the kind of experiment: Neuroprotection after oxygen-glucose deprivation (OGD 4 h, 24 h recovery) in primary neuronal cultures, cell viability by MTT assay. The format is cell-based, rat. The conditions noted are these: for cell viability: MTT absorbance after OGD 4 h and 24 h recovery, R24h vehicle 1.480 ± 0.02 AU, control 1.916 ± 0.07 AU; for Neuroprotection at 1 µM / Neuroprotection at 10 µM / Neuroprotection at 100 µM: Rattus norvegicus; for Neuroprotection at 1 µM: Conc 1 µM; for Neuroprotection at 10 µM: Conc 10 µM; for protective effect (cell viability compared with vehicle-treated group R24h), in words: concentration range tested, from 0.1 to 250 µM; for neuroprotection effect / potency compared with references, in words: 1 µM for the compounds of the invention vs 10 µM for QN23 and 100 µM NXY-059; for toxicity / safety, in words: all tested doses. How it is done:
Primary Neuronal Cultures. Primary neuronal cultures were prepared from rat embryos cerebral cortex following a procedure previously described by our group. Briefly, cell suspensions were prepared from cerebral cortices from E16 Sprague Dawley rat embryos and seeded on plastic multidishes precoated with 0.05 mg/mL poly-D-lysine at a density of 2.5 × 10^5 cells/cm^2. Cells were kept at 37 °C in a 6.5% CO2 atmosphere in high glucose DMEM medium supplemented with 15% heat-inactivated (56 °C, 30 min) fetal calf serum. After 24 h, culture medium was replaced by serum-free medium (DMEM/Ham's F12, 1:1 vol/vol, 5 mg/mL glucose, 2 mM L-glutamine, and 1 mM sodium pyruvate, supplemented with 100 µg/mL transferrin, 100 µM putrescine, 30 nM sodium selenite, 20 nM progesterone, and 5 µg/mL insulin). In these experiments, 6- to 7-days in vitro (DIV) neuronal cultures were used, containing 90% β-tubulin isotype III-positive mature neurons, as described previously.^23 All procedures associated with animal experiments were authorized by the Animal Experimentation Ethics Committee of the Hospital Universitario Ramón y Cajal (Madrid, Spain).
Experimental Ischemia in Neuronal Cultures and Treatments. Primary neuronal cultures were subjected to oxygen-glucose deprivation (OGD) to induce experimental ischemia. Cells cultured for 6- to 7- DIV were washed and placed in glucose-free DMEM medium (previously bubbled with 95% N2/5% CO2 for 30 min) and kept in a humidified anaerobic chamber containing a gas mixture of 95% N2/5% CO2 at 37 °C for 4 h (OGD 4h). Control group was placed in glucose-supplemented DMEM medium and kept in the normoxic incubator for 4h. After 4h of incubation under anoxic (OGD 4h) or normoxic (control) conditions, culture cells were quickly placed in serum-free normo-glycemic culture medium and let to reoxygenate, compounds or vehicle were added and cells were maintained in normoxic and normoglycemic conditions to recover for 24 h. Vehicle experimental group (R24h) included the same amount of vehicle solution than the groups tested with compounds (final concentration < 0.5% ethanol). The experimental procedure was blindly performed, assigning a random order to each group assayed. Compound assays were performed independently from four to eight times with different batches of cultures, and each experiment was run in quadruplicate.
Cell viability assays. To assess the potential neuroprotective effect of the compounds against OGD, cell viability was evaluated by quantification of living, metabolically active cells, as determined by the colorimetric assay using the photometric reduction of 3-(4,5-dimethylthiazol-2-yl)-2,5-diphenyl tetrazolium bromide (MTT) (Roche) to a blue formazan product. MTT assay was performed after the 24-hour-long recovery period -except for the OGD 4h group, for which MTT was added right after the end of the OGD period, with no recovery- by treating cells with 0.2 mg/mL MTT in the culture medium for 1.5 h at 37 °C in a 6.5% CO2 atmosphere. After incubation, cells were lysed with an equal volume of lysis solution (10 mM HCl, 10% SDS) overnight. Values were quantified by absorbance at 595 nm (reference 690 nm) and expressed in Absorbance Units (AU). Decreased MTT activity denotes impairment of mitochondrial function and is indicative of cell damage.
Statistical Analysis. Data from each treatment were independently analyzed and their averaged values were used for statistical analysis. The treatment information was kept concealed throughout the study. Data were represented as mean ± SE. Analysis of variance (ANOVA) was performed to compare the data between multiple concentrations, following post hoc test when analysis of variance was significant. Statistical significance level was set at α = 0.05 using Prism statistical software (GraphPad Software).
Cell viability observed in the control group was set as 100% of neuroprotection. […]

Where [1] appears, read: Conc 100 µM, added at onset of 24 h recovery after OGD 4 h, R24h vehicle = 0%, control = 100%, mean ± SE.
The mark [2] stands for this setting: added at onset of 24 h recovery after OGD 4 h, R24h vehicle = 0%, control = 100%, mean ± SE.

Take `CC(C)(C)[N+]([O-])=Cc1ccc(S(=O)(=O)[O-])cc1S(=O)(=O)[O-].[Na+].[Na+]` [NXY-059, reference compound]: for the setting “100 µM”, the cell viability is on record as 1.664 ± 0.07 AU. Under setting [1], the “Neuroprotection (%)” value is 41.93 ± 2.26%.

For the compound `C#CCOc1ccc2nc(Cl)c(/C=[N+](\[O-])Cc3ccccc3)cc2c1` [QN1, (Z)-N-Benzyl-1-(2-chloro-6-(prop-2-yn-1-yloxy)quinolin-3-yl)methanimine oxide], the “protective effect (cell viability compared with vehicle-treated group R24h), in words” value is reported as “no remarkable overall protective effect”. Under setting [2], this compound yielded a Neuroprotection at 1 µM of 26.9 ± 0.88% and a Neuroprotection at 10 µM of 34.8 ± 0.78%. Besides, the Neuroprotection at 100 µM under setting [1] turned out to be 41.3 ± 1.91%.

On to `C#CCOc1ccc2nc(Cl)c(/C=[N+](\[O-])C(C)(C)C)cc2c1` [QN2, (Z)-N-tert-Butyl-1-(2-chloro-6-(prop-2-yn-1-yloxy)quinolin-3-yl)methanimine oxide], for which the “protective effect (cell viability compared with vehicle-treated group R24h), in words” value is “no remarkable overall protective effect”. Under setting [2], this compound yielded a Neuroprotection at 1 µM of 33.7 ± 0.73% and a Neuroprotection at 10 µM of 33.3 ± 0.93%. The Neuroprotection at 100 µM under setting [1] was found to be 40 ± 0.77%.

On to `[O-]/[N+](=C\c1cc2cc(OCc3ccccc3)ccc2nc1Cl)Cc1ccccc1` [QN3, (Z)-N-Benzyl-1-(6-(benzyloxy)-2-chloroquinolin-3-yl)methanimine oxide], for which the Neuroprotection at 1 µM under setting [2] amounted to 45.2 ± 1%.

Regarding `CC(C)(C)/[N+]([O-])=C/c1cc2cc(OCc3ccccc3)ccc2nc1Cl` [QN4, (Z)-N-tert-Butyl-1-(6-(benzyloxy)-2-chloroquinolin-3-yl)methanimine oxide], the “neuroprotection effect / potency compared with references, in words” value is given as “highest neuroprotection effect”. Moreover, under “1 µM”, the cell viability is 1.777 ± 0.04 AU. This compound also showed a Neuroprotection at 1 µM under setting [2] of 67.9 ± 1.44%.

With `COc1ccc2nc(O)c(/C=[N+](\[O-])C(C)(C)C)cc2c1` [QN5, (Z)-N-tert-Butyl-1-(2-hydroxy-6-methoxyquinolin-3-yl)methanimine oxide], the “protective effect (cell viability compared with vehicle-treated group R24h), in words” value was “did not give a remarkable protective effect”. The Neuroprotection at 1 µM under setting [2] was determined as 24.5 ± 0.54%.

`COc1ccc2nc(F)c(/C=[N+](\[O-])Cc3ccccc3)cc2c1` [QN6, (Z)-N-Benzyl-1-(6-(methoxy)-2-fluoroquinolin-3-yl)methanimine oxide]: the “protective effect (cell viability compared with vehicle-treated group R24h), in words” value is listed as “did not show significant differences to the value obtained for the vehicle-treated group”. For the same compound, under setting [2], the Neuroprotection at 1 µM was found to be 26.3 ± 0.89% and the Neuroprotection at 10 µM came out at 25.1 ± 1.03%.

As for `COc1ccc2nc(F)c(/C=[N+](\[O-])C(C)(C)C)cc2c1` [QN7, (Z)-N-tert-Butyl-1-(6-(methoxy)-2-fluoroquinolin-3-yl)methanimine oxide], the “protective effect (cell viability compared with vehicle-treated group R24h), in words” value is on record as “did not show significant differences to the value obtained for the vehicle-treated group”. The Neuroprotection at 1 µM under setting [2] came out at 38.5 ± 0.62%.

On to `COc1ccc2nc(S(=O)(=O)c3ccccc3)c(/C=[N+](\[O-])Cc3ccccc3)cc2c1` [QN8, (Z)-N-Benzyl-1-(6-methoxy-2-(phenylsulfonyl)quinolin-3-yl)methanimine oxide], for which the “neuroprotection effect / potency compared with references, in words” value was “highest neuroprotection effect”. The compound also registered a Neuroprotection at 1 µM under setting [2] of 54.1 ± 2.27%.

Under setting [2], `COc1ccc2nc(S(=O)(=O)c3ccc([N+](=O)[O-])cc3)c(/C=[N+](\[O-])Cc3ccccc3)cc2c1` [QN10, (Z)-N-Benzyl-1-(2-((4-nitrophenyl)sulfonyl)-6-methoxyquinolin-3-yl)methanimine oxide] yielded a Neuroprotection at 1 µM of 47.2 ± 0.94%.

For the compound `COc1ccc2nc(S(=O)(=O)c3ccc([N+](=O)[O-])cc3)c(/C=[N+](\[O-])C(C)(C)C)cc2c1` [QN11, (Z)-N-tert-Butyl-1-(2-((4-nitrophenyl)sulfonyl)-6-methoxyquinolin-3-yl)methanimine oxide], under setting [2], the Neuroprotection at 1 µM is 46.5 ± 1.94%.

As to `COc1ccc2nc(-c3ccc(C(F)(F)F)cc3)c(/C=[N+](\[O-])C(C)(C)C)cc2c1` [QN13, (Z)-N-tert-Butyl-1-(6-methoxy-2-(4-(trifluoromethyl)phenyl)quinolin-3-yl)methanimine oxide], the Neuroprotection at 1 µM under setting [2] turned out to be 39.3 ± 1.16%.

With `COc1ccc2nc(-c3ccc([N+](=O)[O-])cc3)c(/C=[N+](\[O-])Cc3ccccc3)cc2c1` [QN14, (Z)-N-Benzyl-1-(6-methoxy-2-(4-nitrophenyl)quinolin-3-yl)methanimine oxide], the “neuroprotection effect / potency compared with references, in words” value is “highest neuroprotection effect” and the “toxicity / safety, in words” value is “safe”. The compound further came in with a cell viability (1 µM) of 1.742 ± 0.04 AU. This compound also showed a Neuroprotection at 1 µM under setting [2] of 60.1 ± 1.24%.

As to `COc1ccc2nc(-c3ccc([N+](=O)[O-])cc3)c(/C=[N+](\[O-])C(C)(C)C)cc2c1` [QN15, (Z)-N-tert-Butyl-1-(6-methoxy-2-(4-nitrophenyl)quinolin-3-yl)methanimine oxide], the “neuroprotection effect / potency compared with references, in words” value is “highest neuroprotection effect” and the “toxicity / safety, in words” value is “safe”. Besides, under setting [2], the Neuroprotection at 1 µM was found to be 48.1 ± 1.21%.

With `CCOC(=O)/C=C/c1nc2ccc(OC)cc2cc1/C=[N+](\[O-])C(C)(C)C` [QN16, (Z)-N-tert-Butyl-1-(2-((E)-3-ethoxy-3-oxoprop-1-en-1-yl)-6-methoxyquinolin-3-yl)methanimine oxide], the “effect compared with vehicle R24h, in words” value (1 µM dose) is given as “higher effect than vehicle R24h”.

`COc1ccc2nc(Cl)c(/C=[N+](\[O-])C(C)(C)C)cc2c1` [QN23, (Z)-N-tert-butyl-1-(2-chloro-6-methoxyquinolin-3-yl)methanimine oxide, reference compound] had a cell viability (10 µM) of 1.695 ± 0.03 AU. The Neuroprotection at 10 µM under setting [2] was found to be 49 ± 0.89%.

As to `C[N+](C)(C)CCOP(=O)(O)OP(=O)([O-])OC[C@H]1O[C@@H](n2ccc(N)nc2=O)[C@H](O)[C@@H]1O` [citicoline, reference compound], where the note is “100 µM”, the cell viability amounted to 1.588 ± 0.02 AU.

(Values after patent EP4306512A1, “QUINOLYLNITRONES WITH IMPROVED POTENCY” (Fundación para la Investigación Biomédica del Hospital …, priority 2022, dated 2024).)
